Measurements published in patent US10766869B2, “Triazoles for the treatment of demyelinating dieases” (Vertex Pharmaceuticals Incorporated, priority 2015, dated 2020).
Read-outs that look alike come from different tables or passages of the source.

Tested on: primary rat mixed cortical cells
Assay: In vitro myelination assay (MBP positive myelin strands, fold myelin pixels above background)
Type: cell-based
Details: Rattus norvegicus; for fold induction at 1 µM: 1.0 μM compound; for fold induction at 10 µM: 10.0 μM compound
How it was run: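 Fourteen-day treatment of primary P1 rat mixed cortical cultures, re-dosed at days 6 and 10, at 1.0 μM and 10.0 μM. MBP immunofluorescence was imaged at 10× and myelin strands quantified by software, normalised to untreated wells as fold above background.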

[1] = relative to baseline of no added compound, read-out: Fold myelin pixels above background, 1.0 μM
[2] = relative to baseline of no added compound, read-out: Fold myelin pixels above background, 10.0 μM
[3] = relative to baseline of no added compound, read-out: Fold myelin pixels above background
[4] = read-out: Fold myelin pixels above background relative to baseline of no added compound

| Structure (SMILES) | fold induction at 1 µM [3] | fold induction at 10 µM [3] | fold induction at 1 µM [4] | fold induction at 10 µM [4] | also measured |
| --- | --- | --- | --- | --- | --- |
| Cc1cc(Nc2ncn(-c3ccc(C#N)cc3)n2)cc(N2CCN(C)CC2)c1 [Compound 81, 4-[3-[3-methyl-5-(4-methylpiperazin-1-yl)anilino]-1,2,4-triazol-1-yl]benzonitrile] |  |  |  |  | fold induction at 1 µM [1]: 1 to 10; fold induction at 10 µM [2]: ≤ 1 |
| CCc1cc(Nc2ncn(-c3cncnc3)n2)cc(N2CC(N3CCOCC3)C2)c1 [Compound 544, N-[3-ethyl-5-(3-morpholinoazetidin-1-yl)phenyl]-1-pyrimidin-5-yl-1,2,4-triazol-3-amine] | 1 to 10 | 10 to 100 |  |  |  |
| Fc1cc(Cl)cc(-n2cnc(Nc3cc(C4CC4)cc(N4CCN(C5COC5)CC4)c3)n2)c1 [Compound 400, 1-(3-chloro-5-fluoro-phenyl)-N-[3-cyclopropyl-5-[4-(oxetan-3-yl)piperazin-1-yl]phenyl]-1,2,4-triazol-3-amine] | 1000 to 10000 | ≤ 1 |  |  |  |
| Cc1cc(Nc2ncn(-c3ccc(F)c(F)c3)n2)cc(O[C@H]2CCCN(C3COC3)C2)c1 (single isomer, unassigned) [Compound 632] | 10 to 100 | ≤ 1 |  |  |  |
| Cc1cc(Nc2ncn(-c3cc(F)cc(F)c3)n2)cc([C@]2(C)CNC(=O)O2)c1 (single isomer, unassigned) [Compound 655] | 10 to 100 | ≤ 1 |  |  |  |
| Cc1cc(Nc2ncn(-c3cc(F)cc(F)c3)n2)cc(N2CCN(CCN3CCOCC3)CC2)c1 [Compound 593, 1-(3,5-difluorophenyl)-N-[3-methyl-5-[4-(2-morpholinoethyl)piperazin-1-yl]phenyl]-1,2,4-triazol-3-amine] | 1 to 10 | ≤ 1 |  |  |  |
| Cc1cc(NCC2CN(CC(C)C)CCO2)cc(Nc2ncn(-c3cc(F)cc(F)c3)n2)c1 (stereo not drawn) [Compound 903, N1-[1-(3,5-difluorophenyl)-1,2,4-triazol-3-yl]-N3-[(4-isobutylmorpholin-2-yl)methyl]-5-methyl-benzene-1,3-diamine] |  |  | 10 to 100 | 1 to 10 |  |
| Cc1cc(Nc2ncn(-c3ccccc3)n2)cc(N2C[C@@H]3C[C@H]2CN3C)c1 [Compound 479, N-[3-methyl-5-[(1S,4S)-5-methyl-2,5-diazabicyclo[2.2.1]heptan-2-yl]phenyl]-1-phenyl-1,2,4-triazol-3-amine] | 100 to 1000 | ≤ 1 |  |  |  |
| Cc1cc(Nc2ncn(-c3ccc(F)c(F)c3)n2)cc(N2CCN(C3COC3)CC2)c1 [Compound 386, 1-(3,4-difluorophenyl)-N-[3-methyl-5-[4-(oxetan-3-yl)piperazin-1-yl]phenyl]-1,2,4-triazol-3-amine] | 100 to 1000 | 1000 to 10000 |  |  |  |
| Cc1cc(Nc2ncn(-c3cc(F)cc(F)c3)n2)cc(N2CCC(C3COC3)CC2)c1 [Compound 216, 1-(3,5-difluorophenyl)-N-[3-methyl-5-[4-(oxetan-3-yl)-1-piperidyl]phenyl]-1,2,4-triazol-3-amine] |  |  |  |  | fold induction at 1 µM [1]: 1 to 10; fold induction at 10 µM [2]: 10 to 100 |
| FC(F)(F)c1cc(Nc2ncn(-c3cnccn3)n2)nc(N2CCN(C3COC3)CC2)c1 [Compound 712, 6-[4-(oxetan-3-yl)piperazin-1-yl]-N-(1-pyrazin-2-yl-1,2,4-triazol-3-yl)-4-(trifluoromethyl)pyridin-2-amine] | 1 to 10 | 1 to 10 |  |  |  |
| Cc1cc(Nc2ncn(-c3cc(F)cc(F)c3)n2)cc(OC2CCCN(C3COC3)C2)c1 (stereo not drawn) [Compound 620, 1-(3,5-difluorophenyl)-N-[3-methyl-5-[[1-(oxetan-3-yl)-3-piperidyl]oxy]phenyl]-1,2,4-triazol-3-amine] | 10 to 100 | 1 to 10 |  |  |  |
| CC(C)(C)c1cc(Nc2ncn(-c3cncnc3)n2)cc(N2CCN(C3COC3)CC2)c1 [Compound 550, N-[3-tert-butyl-5-[4-(oxetan-3-yl)piperazin-1-yl]phenyl]-1-pyrimidin-5-yl-1,2,4-triazol-3-amine] | 10 to 100 | 10 to 100 |  |  |  |
| Cc1cc(Nc2ncn(-c3cc(F)cc(F)c3)n2)cc(N2CCC(N(C)CCO)CC2)c1 [Compound 1015, 2-[[1-[3-[[1-(3,5-difluorophenyl)-1,2,4-triazol-3-yl]amino]-5-methyl-phenyl]-4-piperidyl]-methyl-amino]ethanol] |  |  | ≤ 1 | ≤ 1 |  |
| Fc1cc(Nc2ncn(-c3ccc(F)cc3F)n2)cc(N2CCCOCC2)c1 [Compound 343, 1-(2,4-difluorophenyl)-N-[3-fluoro-5-(1,4-oxazepan-4-yl)phenyl]-1,2,4-triazol-3-amine] |  |  |  |  | fold induction at 1 µM [1]: ≤ 1; fold induction at 10 µM [2]: 100 to 1000 |
| Cc1cc(Nc2ncn(-c3ccccc3)n2)cc(C2CCNC2)c1 (stereo not drawn) [Compound 39, N-(3-methyl-5-pyrrolidin-3-yl-phenyl)-1-phenyl-1,2,4-triazol-3-amine] |  |  |  |  | fold induction at 1 µM [1]: 1000 to 10000; fold induction at 10 µM [2]: ≤ 1 |
| Cc1cc(Nc2ncn(-c3cccc(C(F)(F)F)c3)n2)cc(N2CCCC2)c1 [Compound 190, N-(3-methyl-5-pyrrolidin-1-yl-phenyl)-1-[3-(trifluoromethyl)phenyl]-1,2,4-triazol-3-amine] |  |  |  |  | fold induction at 1 µM [1]: 1 to 10; fold induction at 10 µM [2]: ≤ 1 |
| Cc1cc(NCC2(N3CCCC3)COC2)cc(Nc2ncn(-c3cc(F)cc(F)c3)n2)c1 [Compound 1020, N1-[1-(3,5-difluorophenyl)-1,2,4-triazol-3-yl]-5-methyl-N3-[(3-pyrrolidin-1-yloxetan-3-yl)methyl]benzene-1,3-diamine] |  |  | 10 to 100 | 1 to 10 |  |
| Cc1cc(Nc2ncn(-c3cc(F)cc(F)c3)n2)cc(N2CCOC(CO)C2)c1 (stereo not drawn) [Compound 1073, [4-[3-[[1-(3,5-difluorophenyl)-1,2,4-triazol-3-yl]amino]-5-methyl-phenyl]morpholin-2-yl]methanol] |  |  | 10 to 100 | ≤ 1 |  |
| CN1CCN(c2cc(Nc3ncn(-c4ccnc(F)c4)n3)cc(C(F)(F)F)c2)CC1 [Compound 226, 1-(2-fluoro-4-pyridyl)-N-[3-(4-methylpiperazin-1-yl)-5-(trifluoromethyl)phenyl]-1,2,4-triazol-3-amine] |  |  |  |  | fold induction at 1 µM [1]: 100 to 1000; fold induction at 10 µM [2]: ≤ 1 |
| Cc1cc(Nc2ncn(-c3cc(F)cc(F)c3)n2)cc(N2CC(O)C(N3CCCC3)C2)c1 (stereo not drawn) [Compound 1010, 1-[3-[[1-(3,5-difluorophenyl)-1,2,4-triazol-3-yl]amino]-5-methyl-phenyl]-4-pyrrolidin-1-yl-pyrrolidin-3-ol] |  |  | 1 to 10 | ≤ 1 |  |
| Cc1cc(Nc2ncn(-c3cc(F)cc(F)c3)n2)cc(N2CCN(CC3CCCN(C)C3)CC2)c1 (stereo not drawn) [Compound 1047, 1-(3,5-difluorophenyl)-N-[3-methyl-5-[4-[(1-methyl-3-piperidyl)methyl]piperazin-1-yl]phenyl]-1,2,4-triazol-3-amine] |  |  | 1 to 10 | ≤ 1 |  |
| Cc1cc(Nc2ncn(-c3cccc(Cl)c3)n2)cc(N2CCN(C)CC2)c1 [Compound 141, 1-(3-chlorophenyl)-N-[3-methyl-5-(4-methylpiperazin-1-yl)phenyl]-1,2,4-triazol-3-amine] |  |  |  |  | fold induction at 1 µM [1]: 100 to 1000; fold induction at 10 µM [2]: ≤ 1 |
| Cc1cc(Nc2ncn(-c3cc(F)cc(F)c3)n2)cc(N2CC(N3C[C@@H](C)O[C@H](C)C3)C2)c1 [Compound 857, 1-(3,5-difluorophenyl)-N-[3-[3-[(2R,6R)-2,6-dimethylmorpholin-4-yl]azetidin-1-yl]-5-methyl-phenyl]-1,2,4-triazol-3-amine] |  |  | 10 to 100 | 10 to 100 |  |
| Cc1cc(Nc2ncn(-c3cccc(F)c3)n2)cc(C2CCCN(C3COC3)C2)c1 (stereo not drawn) [Compound 411, 1-(3-fluorophenyl)-N-[3-methyl-5-[1-(oxetan-3-yl)-3-piperidyl]phenyl]-1,2,4-triazol-3-amine] | 100 to 1000 | ≤ 1 |  |  |  |
| CCC1CN(c2cc(C)cc(Nc3ncn(-c4cc(F)cc(F)c4)n3)c2)CCN1CC(C)O (stereo not drawn) [Compound 1056, 1-[4-[3-[[1-(3,5-difluorophenyl)-1,2,4-triazol-3-yl]amino]-5-methyl-phenyl]-2-ethyl-piperazin-1-yl]propan-2-ol] |  |  | 1 to 10 | ≤ 1 |  |
| Cc1cc(Nc2ncn(-c3cc(F)cc(F)c3)n2)cc(N2CCN(C)C(CCO)C2)c1 (stereo not drawn) [Compound 1026, 2-[4-[3-[[1-(3,5-difluorophenyl)-1,2,4-triazol-3-yl]amino]-5-methyl-phenyl]-1-methyl-piperazin-2-yl]ethanol] |  |  | 1 to 10 | 1 to 10 |  |
| Cc1cc(Nc2ncn(-c3cc(F)cc(F)c3)n2)cc(C2CCCN(C3CC(C(=O)O)C3)C2)c1 (stereo not drawn) [Compound 442, 3-[3-[3-[[1-(3,5-difluorophenyl)-1,2,4-triazol-3-yl]amino]-5-methyl-phenyl]-1-piperidyl]cyclobutanecarboxylic acid] | 10 to 100 | 10 to 100 |  |  |  |
| Cc1cc(Nc2ncn(-c3ccccc3)n2)cc(C2CCNCC2)c1 [Compound 308, N-[3-methyl-5-(4-piperidyl)phenyl]-1-phenyl-1,2,4-triazol-3-amine] |  |  |  |  | fold induction at 1 µM [1]: 1000 to 10000; fold induction at 10 µM [2]: ≤ 1 |
| CN1CCN(c2cc(N3CCN(C4COC4)CC3)cc(Nc3ncn(-c4cc(F)cc(F)c4)n3)n2)CC1 [Compound 650, N-[1-(3,5-difluorophenyl)-1,2,4-triazol-3-yl]-6-(4-methylpiperazin-1-yl)-4-[4-(oxetan-3-yl)piperazin-1-yl]pyridin-2-amine] | 10 to 100 | 1 to 10 |  |  |  |
